In one assay the target is human recombinant FGFR1 (Homo sapiens, UniProt P11362). The assay is described as follows: FGFR family enzymatic activity assay (Caliper-based kinase assay), FGFR1. In kind it is biochemical. Particulars: FGFR1 0.5 nM, ATP 100 μM, peptide substrate 1 μM, room temperature 3 h. An excerpt: A Caliper-based kinase assay (Caliper Life Sciences, Hopkinton, Mass.) was used to measure inhibition of FGFR family (FGFR1, FGFR2, FGFR3, FGFR4) kinase activity of a compound of Formula (I′) or (I). […] This value is presented as the IC50.
Sequence of human recombinant FGFR1 (P11362 22-822): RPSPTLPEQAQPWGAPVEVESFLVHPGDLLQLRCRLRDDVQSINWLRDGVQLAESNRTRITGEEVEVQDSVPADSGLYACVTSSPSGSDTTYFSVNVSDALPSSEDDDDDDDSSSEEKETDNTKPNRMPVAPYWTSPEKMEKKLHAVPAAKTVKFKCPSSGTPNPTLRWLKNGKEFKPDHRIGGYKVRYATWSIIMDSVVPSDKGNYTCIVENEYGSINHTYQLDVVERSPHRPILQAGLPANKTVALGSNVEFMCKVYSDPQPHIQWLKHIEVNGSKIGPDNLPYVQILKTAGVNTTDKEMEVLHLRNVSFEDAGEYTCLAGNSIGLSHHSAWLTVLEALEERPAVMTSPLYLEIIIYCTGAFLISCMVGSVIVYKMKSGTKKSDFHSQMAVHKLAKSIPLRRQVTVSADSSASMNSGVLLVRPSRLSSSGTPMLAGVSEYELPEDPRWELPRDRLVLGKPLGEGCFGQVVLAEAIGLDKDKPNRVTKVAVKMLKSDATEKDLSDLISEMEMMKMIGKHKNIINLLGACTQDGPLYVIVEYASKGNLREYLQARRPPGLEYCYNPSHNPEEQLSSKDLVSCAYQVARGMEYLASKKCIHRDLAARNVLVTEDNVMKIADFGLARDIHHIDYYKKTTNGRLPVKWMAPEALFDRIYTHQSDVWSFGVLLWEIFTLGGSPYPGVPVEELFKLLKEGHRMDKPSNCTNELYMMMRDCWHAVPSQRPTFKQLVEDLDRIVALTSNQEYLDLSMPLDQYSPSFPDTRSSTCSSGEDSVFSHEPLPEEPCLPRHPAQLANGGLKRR

In another assay the test system is SNU-16 cells. The assay is described as follows: Inhibition of FGFR2-dependent cell growth (Cell-titer Glo). Conditions: Homo sapiens, SNU16 cells, 72 hrs incubation, cell viability by Cell-titer Glo. In kind it is cell-based. Here is the method:
The cell-based effects of FGFR inhibitors were determined by measuring inhibition of FGFR-dependent cell line growth. […] Percent inhibition of cell growth was calculated as a percentage of untreated cell viability. The percent inhibition was plotted as a function of log compound concentration. The IC50 was then calculated for each compound using Prism software from GraphPad.

IC50 data for 23 compounds are collected here from patent US9630963B2, “Quinolone derivatives as fibroblast growth factor inhibitors” (Principia Biopharma, Inc., priority 2013, dated 2017).

A word on the IC50: it is the concentration that inhibits the measured activity by half.

Some results are limits rather than exact numbers.

For `C=CC(=O)Nc1cccc(CCn2c(=O)c(-c3cc(OC)cc(OC)c3)cc3cnc(NC)nc32)n1` [Example 11, N-(6-(2-(6-(3,5-dimethoxyphenyl)-2-(methylamino)-7-oxopyrido[2,3-d]pyrimidin-8(7H)-yl)ethyl)pyridin-2-yl)acrylamide], the figures for the IC50 at human recombinant FGFR1 and in the assay on SNU-16 cells were 22.2 nM and 94.2 nM, respectively.
The matching figures for `C=CS(=O)(=O)Nc1ccc(CCn2c(=O)c(-c3cc(OC)cc(OC)c3Cl)cc3cnc(NC)nc32)cc1` [Example 20, N-(4-(2-(6-(2-chloro-3,5-dimethoxyphenyl)-2-(methylamino)-7-oxopyrido[2,3-d]pyrimidin-8(7H)-yl)ethyl)phenyl)ethenesulfonamide]: 3.4 nM and 24.3 nM.
The matching figures for `C=CS(=O)(=O)Nc1cccc(CCn2c(=O)c(-c3cc(OC)cc(OC)c3Cl)cc3cnc(NC)nc32)c1` [Example 21, N-(3-(2-(6-(2-chloro-3,5-dimethoxyphenyl)-2-(methylamino)-7-oxopyrido[2,3-d]pyrimidin-8(7H)-yl)ethyl)phenyl)ethenesulfonamide]: 6.7 nM and 115 nM.
For the compound `CNc1ncc2cc(-c3cc(OC)cc(OC)c3Cl)c(=O)n(CCc3ccc(NC(=O)/C=C/CN(C)C)cc3)c2n1` [Example 22, (E)-N-(4-(2-(6-(2-chloro-3,5-dimethoxyphenyl)-2-(methylamino)-7-oxopyrido[2,3-d]pyrimidin-8(7H)-yl)ethyl)phenyl)-4-(dimethylamino)but-2-enamide], the concentration for half-maximal inhibition (IC50) amounted to 0.4 nM at human recombinant FGFR1 and 1 nM with SNU-16 cells.
On the same counts, the results for `CNc1ncc2cc(-c3cc(OC)cc(OC)c3Cl)c(=O)n(CCc3cccc(NC(=O)/C=C/CN(C)C)c3)c2n1` [Example 23, (E)-N-(3-(2-(6-(2-chloro-3,5-dimethoxyphenyl)-2-(methylamino)-7-oxopyrido[2,3-d]pyrimidin-8(7H)-yl)ethyl)phenyl)-4-(dimethylamino)but-2-enamide] are 1.2 nM and 1 nM.
The matching figures for `C=CC(=O)Nc1ccc(CCn2c(=O)c(-c3cc(OC)cc(OC)c3Cl)cc3cnc(NCC(C)(C)O)nc32)cc1` [Example 24, N-(4-(2-(6-(2-chloro-3,5-dimethoxyphenyl)-2-((2-hydroxy-2-methylpropyl)amino)-7-oxopyrido[2,3-d]pyrimidin-8(7H)-yl)ethyl)phenyl)acrylamide]: 1.7 nM and 1.8 nM.
As to `C=CC(=O)Nc1ccc(CCn2c(=O)c(-c3cc(OC)cc(OC)c3Cl)cc3cnc(N)nc32)cc1` [Example 27, N-(4-(2-(2-amino-6-(2-chloro-3,5-dimethoxyphenyl)-7-oxopyrido[2,3-d]pyrimidin-8(7H)-yl)ethyl)phenyl)acrylamide], the IC50 at human recombinant FGFR1 stood at 0.9 nM; with SNU-16 cells, 7.4 nM.
The matching figures for `C=CC(=O)Nc1ccc(CCn2c(=O)c(-c3cc(OC)cc(OC)c3Cl)cc3cnc(NCC(C)(C)O)nc32)cn1` [Example 28, N-(5-(2-(6-(2-chloro-3,5-dimethoxyphenyl)-2-((2-hydroxy-2-methylpropyl)amino)-7-oxopyrido[2,3-d]pyrimidin-8(7H)-yl)ethyl)pyridin-2-yl)acrylamide]: 4.3 nM and 3.8 nM.
The matching figures for `C=CC(=O)Nc1ccc(CCn2c(=O)c(-c3cc(OC)cc(OC)c3Cl)cc3cnc(NCC(C)(C)C)nc32)cn1` [Example 30, N-(5-(2-(6-(2-chloro-3,5-dimethoxyphenyl)-2-(neopentylamino)-7-oxopyrido[2,3-d]pyrimidin-8(7H)-yl)ethyl)pyridin-2-yl)acrylamide]: 5.1 nM and 5 nM.
Turning to `C=CC(=O)Nc1ccc(CCn2c(=O)c(-c3cc(OC)cc(OC)c3Cl)cc3cnc(NCCN4CCOCC4)nc32)cn1` [Example 31, N-(5-(2-(6-(2-chloro-3,5-dimethoxyphenyl)-2-(2-morpholinoethylamino)-7-oxopyrido[2,3-d]pyrimidin-8(7H)-yl)ethyl)pyridin-2-yl)acrylamide], the values for the IC50 at human recombinant FGFR1 and in the assay on SNU-16 cells were 1.4 nM and 3.6 nM, respectively.
On the same counts, the results for `C=CC(=O)Nc1ccc(CCn2c(=O)c(-c3cc(OC)cc(OC)c3Cl)cc3cnc(NCCCCN(CC)CC)nc32)cn1` [Example 32, N-(5-(2-(6-(2-chloro-3,5-dimethoxyphenyl)-2-((4-(diethylamino)butyl)amino)-7-oxopyrido[2,3-d]pyrimidin-8 (7H)-yl)ethyl)pyridin-2-yl)acrylamide] are 1.2 nM and 6.7 nM.
On the same counts, the results for `C=CC(=O)Nc1nc(CCn2c(=O)c(-c3cc(OC)cc(OC)c3Cl)cc3cnc(NC)nc32)cs1` [Example 33, N-(4-(2-(6-(2-chloro-3,5-dimethoxyphenyl)-2-(methylamino)-7-oxopyrido[2,3-d]-pyrimidin-8(7H)-yl)ethyl)thiazol-2-yl)acrylamide] are 4.1 nM and 32.7 nM.
On the same counts, the results for `C=CC(=O)Nc1cccc(CCn2c(=O)c(-c3cc(OC)cc(OC)c3Cl)cc3cnc(NCCN4CCOCC4)nc32)c1` [Example 35, N-(3-(2-(6-(2-chloro-3,5-dimethoxyphenyl)-2-((2-morpholinoethyl)amino)-7-oxo-pyrido[2,3-d]pyrimidin-8(7H)-yl)ethyl)phenyl)acrylamide] are 6 nM and 3.6 nM.
In the case of `C=CC(=O)Nc1ccc(CCn2c(=O)c(-c3cc(OC)cc(OC)c3Cl)cc3cnc(NCCCN(CC)CC)nc32)cc1` [Example 40, N-(4-(2-(6-(2-chloro-3,5-dimethoxyphenyl)-2-((3-(diethylamino)propyl)amino)-7-oxopyrido[2,3-d]pyrimidin-8(7H)-yl)ethyl)phenyl)acrylamide], the IC50 on human recombinant FGFR1 was 2.4 nM; with SNU-16 cells it was 3 nM.
The matching figures for `C=CC(=O)Nc1nc(CCn2c(=O)c(-c3c(Cl)c(OC)cc(OC)c3Cl)cc3cnc(NC)nc32)cs1` [Example 41, N-(4-(2-(6-(2,6-dichloro-3,5-dimethoxyphenyl)-2-(methylamino)-7-oxopyrido[2,3-d]pyrimidin-8(7H)-yl)ethyl)thiazol-2-yl)acrylamide]: 5 nM and over 330 nM.
The matching figures for `CNc1ncc2cc(-c3cc(OC)cc(OC)c3Cl)c(=O)n(CCc3ccc(NS(=O)(=O)C=C(C)C)cc3)c2n1` [Example 45, N-(4-(2-(6-(2-chloro-3,5-dimethoxyphenyl)-2-(methylamino)-7-oxopyrido[2,3-d]pyrimidin-8(7H)-yl)ethyl)phenyl)-2-methylprop-1-ene-1-sulfonamide]: 4 nM and 48 nM.
`C=CC(=O)Nc1cnc(CCn2c(=O)c(-c3cc(OC)cc(OC)c3Cl)cc3cnc(NCCN4CCOCC4)nc32)cn1` [Example 47, N-(5-(2-(6-(2-chloro-3,5-dimethoxyphenyl)-2-((2-morpholinoethyl)amino)-7-oxopyrido[2,3-d]pyrimidin-8(7H)-yl)ethyl)pyrazin-2-yl)acrylamide]: the IC50 was 3 nM on human recombinant FGFR1 and 82.4 nM with SNU-16 cells.
In the case of `C=CC(=O)Nc1ccc(CCn2c(=O)c(-c3cc(OC)cc(OC)c3Cl)cc3cnc(NCCn4ccnc4)nc32)cc1` [Example 50, N-(4-(2-(2-((2-(1H-imidazol-1-yl)ethyl)amino)-6-(2-chloro-3,5-dimethoxyphenyl)-7-oxopyrido[2,3-d]pyrimidin-8(7H)-yl)ethyl)phenyl)acrylamide], the IC50 was 7.4 nM at human recombinant FGFR1 and 11.7 nM with SNU-16 cells.
On the same counts, the results for `C=CC(=O)Nc1cccc(CCn2c(=O)c(-c3cc(OC)cc(OC)c3F)cc3cnc(NCCN4CCOCC4)nc32)c1` [Example 52, N-(3-(2-(6-(2-fluoro-3,5-dimethoxyphenyl)-2-(2-morpholin-4-ylethyllamino)-7-oxopyrido[2,3-d]pyrimidin-8(7H)-yl)ethyl)phenyl)acrylamide] are 5.4 nM and 15 nM.
The matching figures for `C=CC(=O)Nc1ccc(CCn2c(=O)c(-c3cc(OC)cc(OC)c3F)cc3cnc(NCCN4CCOCC4)nc32)cc1F` [Example 53, N-(2-fluoro-4-(2-(6-(2-fluoro-3,5-dimethoxyphenyl)-2-((2-morpholinoethyl)amino)-7-oxopyrido[2,3-d]pyrimidin-8(7H)-yl)ethyl)phenyl)acrylamide]: 28.9 nM and 71.3 nM.
On the same counts, the results for `C=CC(=O)Nc1ccc(CCn2c(=O)c(-c3cc(OC)cc(OC)c3Cl)cc3cnc(NCCN4CCOCC4)nc32)cc1F` [Example 54, N-(4-(2-(6-(2-chloro-3,5-dimethoxyphenyl)-2-((2-morpholinoethyl)amino)-7-oxopyrido[2,3-d]pyrimidin-8(7H)-yl)ethyl)-2-fluorophenyl)acrylamide] are 11.7 nM and 33.3 nM.
In turn, `C=CC(=O)Nc1ccc(CCn2c(=O)c(-c3c(Cl)c(OC)cc(OC)c3Cl)cc3cnc(NC(CC)(CO)CO)nc32)nc1` [Example 100, N-(6-(2-(6-(2,6-dichloro-3,5-dimethoxyphenyl)-2-((1-hydroxy-2-(hydroxymethyl)-butan-2-yl)amino)-7-oxopyrido[2,3-d]pyrimidin-8(7H)-yl)ethyl)pyridin-3-yl)acrylamide] returned an IC50 with SNU-16 cells of 26.2 nM.
For the compound `C=CC(=O)Nc1ccc(CCn2c(=O)c(-c3cc(OC)cc(OC)c3Cl)cc3cnc(NCCN4CCC(F)(F)CC4)nc32)cc1` [Example 111, N-(4-(2-(6-(2-chloro-3,5-dimethoxyphenyl)-2-((2-(4,4-difluoropiperidin-1-yl)-ethyl)amino)-7-oxopyrido[2,3-d]pyrimidin-8(7H)-yl)ethyl)phenyl)acrylamide], at human recombinant FGFR1, the IC50 is 3.4 nM.
